Data as given in article PMC11407620, “Repurposing auranofin and meclofenamic acid as energy-metabolism inhibitors and anti-cancer drugs” (PLOS ONE, 2024).
Values joined by “and” are separate entries in the source; they are usually repeats but may differ in a detail not shown here. Identical values can stand only once.

Assays:
[1] = system: HeLa cells; test: Cell invasiveness, Boyden chamber; type: cell-based; conditions: Homo sapiens, MA 10 μM, 24 h
Protocol: (§1) The 96-multiwell Boyden chambers (Merck Millipore, MA, USA) assay was performed for cellular invasiveness detection. Cancer cells (5 × 10^4 cells/well) were re-suspended in free-serum DMEM and placed in the upper Boyden chamber compartment. Free-serum DMEM was also placed in the lower compartment of the chamber. Afterwards, the Boyden chamber was placed at 37°C and 95% air/5% CO2 for 24 h. Invasive cancer cells within the lower chamber compartment were detected by using the calcein-AM (60 nM, 1 h) assay at 37°C. Calcein-fluorescence was measured at λexcitation = 485 nm and λemission = 520 nm in a Nunclon microplate reader (Roskilde, Denmark).
S1 Figure. Cancer invasiveness assay in metastatic cancer cells exposed to MA (A) and perhexiline (B) for 24 h. All cancer cell invasiveness was compared with MDA-MB-231 cells, which are cancer cells with the highest invasiveness ability. n=3; *P < 0.05 vs. MDA-MB-231 non-treated cells.

[2] = parameters: method as in doi:10.1016/j.ccr.2017.02.015, PMID 36770718; conditions: cited from earlier work
[3] = system: Glioblastoma U373 cells; test: Cell proliferation, 24 h drug exposure; type: cell-based, human
Protocol: All metastatic (breast MDA-MB231, MDA-MB468, cervix HeLa, prostate PC3, colorectal HCT116, COLO205, glioblastoma U373), low-metastatic (breast MCF-7) cancer and non-cancer (fibroblast 3T3, cardiomyocytes H9C2) cell lines (American Type Culture Collection, Rockville, MD, USA) used in this study were cultured in Petri dishes in 20 mL of Dulbecco’s Modified Eagle’s Medium (DMEM, Sigma, MO, USA) supplemented with 10% fetal bovine serum (Biowest, Mexico) and 10,000 U penicillin/streptomycin (Sigma-Aldrich, MO, USA). […] For growth and maintenance, cells were incubated in 5% CO2/95% air at 37°C and kept until 80–90% of confluence was reached. Then, cells were harvested, washed by centrifugation and resuspended in Krebs-Ringer buffer (KR, 125 mM NaCl, 5 mM KCl, 25 mM Hepes, 1 mM MgCl2, 1 mM KH2PO4, 1.4 mM CaCl2, pH 7.4) for further use. For experimentation, cancer cells (3–5 x 10^6 cells) were cultured in DMEM (with 25 mM glucose) for 24 h in the absence of drugs. Afterwards, old-medium was replaced with fresh DMEM medium (with 25 mM glucose) in the absence (control, non-treated cells) or in the presence of logarithmic concentrations of Aur and MA for 24 h more, under the same culture conditions described above. Viability of cultured cells was determined by the trypan blue exclusion assay. The protein concentration was determined by the Lowry method.
For cell proliferation in the presence of drugs, cancer cells (20 x 10^3 cells/well) were grown in 96-well plates containing DMEM (Sigma-Aldrich) plus 10% bovine fetal serum for 24 h. […] The effect of these drugs on cell proliferation was determined in 96-well plates by the MTT (3-[4,5-dimethyl-thiazol-2-yl]-2,5-diphenyltetrazolium bromide) assay. The viability of cancer cells was > 95% after treatment with drugs.

[4] = system: HeLa cells; test: ROS production and total content (DHE); type: cell-based, human; conditions: Aur 1.7 μM, 24 h
Protocol: Fig 3 Radical oxygen species in Aur-treated cancer cells. (A) ROS production and (B) ROS total content in DHE loaded-metastatic cancer cells. The 100% fluorescence corresponds to 1.9 ± 0.26 (n = 3); 1.2 ± 0.09 (n = 3); and 0.64 (n = 2) fluorescence arbitrary units for HeLa, MDA-MB-231 and U373 cells, respectively. The Aur concentration added was 1.7, 0.8 and 0.6 μM for HeLa, MDA-MB-231 and U373 cells, respectively. The contents of ROS shown were determined at the 120 min end-point, after adding 25 μM DHE. *p < 0.05 vs. Control (Non- treated cells).

[5] = parameters: method as in PMID 27821451, PMID 6411921; conditions: patients receiving oral Aur; after 24 h -7 d of treatment; cited from earlier work
[6] = system: GAPDH; parameters: method as in PMID 36560881; conditions: OVCAR-8 cells; Aur 2.5 μM/ 8 h; cited from earlier work
[7] = system: ovarian cancer A2780 cells; parameters: method as in PMID 35358852; conditions: cited from earlier work
[8] = system: HeLa cells; test: Mitophagy assay (MTG/LTR co-localization); type: cell-based, human; conditions: Aur 1.7 μM, 24 h
Protocol: The selective removal of damaged/inhibited mitochondria by autophagosomes and lysosomes (i.e., mitophagy) was detected by using an EVOS epifluorescence cell imaging microscope (ThermoFisher, Waltham MA, USA). HeLa cells (5 × 10^4 cells/mL) were cultured in 2 mL DMEM in glass bottom culture dishes and exposed to Aur for 24 h. HeLa cells were incubated with 400 nM Hoechst (Bis-Benzimide H 33342 trihydrochloride), 500 nM MitoTracker-Green FM and 500 nM LysoTracker-Red for 30 min at 37°C for nuclei, mitochondria and lysosome detection, respectively. Afterwards, cells were washed, resuspended with DMEM medium without red phenol and placed in the EVOS microscope for their analysis.
To establish which cell processes were associated to Aur-dependent OxPhos inhibition, mitochondrial digestion (mitophagy) and ROS production were assayed in HeLa cells (Fig 2). Mitophagy is the selective removal of dysfunctional or damaged mitochondria by autophagosomes, which is triggered by mitochondrial inner membrane depolarization and the generation of reactive oxygen species (ROS). Mitophagy was assessed by the number of lysosomes and their co-localization with mitochondria in LTR/MTG-loaded cells by epifluorescence microscopy. […] In addition, dead cells were previously removed for the dye loading procedure, thus discarding unspecific drug effects on mitophagy. […]

[9] = system: U373 glioblastoma cells; test: Cell invasiveness, Boyden chamber; type: cell-based, human; conditions: 0.6 μM Aur, 24 h
Protocol: as §1
(§2) The Aur concentration added was 1.7, 0.8, 2 and 0.6 μM for HeLa, MDA-MB-231, MDA-MB-468 and U373 cells, respectively. n = 3; *p < 0.05, **p<0.01 vs. Control (Non-treated cells).

[10] = system: HeLa, MDA-MB-231 and MDA-MB-468 cells; test: Cell invasiveness, Boyden chamber; type: cell-based, human; conditions: Aur at IC50 (1.7, 0.8, 2 μM); 24 h
Protocol: as §1, §2

Row | Compound | inhibition at 10 µM [1] | stability in aqueous media [2] | IC50 ([3]; Glioblastoma U373, 24 h, read-out: IC50 for proliferation cell rate) | TI ratio (3T3/ cancer cells) ([3]; IC50 3T3 / IC50 U373) | TI ratio (H9C2/cancer cells) ([3]; IC50 H9C2 / IC50 U373) | ROS production rate [4] | total ROS levels after 2 h measurement [4] | blood Aur levels [5] | lower GAPDH activity vs. non-treated cells [6] | inhibition of cancer cell total oxygen consumption [7] | mitophagy (MTG mitochondria/LTR lysosomes co-localization) [8] | inhibition of cell invasiveness [9] | inhibition of invasiveness [10]
1 | Cc1ccc(Cl)c(Nc2ccccc2C(=O)O)c1Cl [MA, Meclofenamic acid] | 65% | – | – | – | – | – | – | – | – | – | – | – | –
2 | CC(=O)OC[C@H]1O[C@@H]([S-])[C@H](OC(C)=O)[C@@H](OC(C)=O)[C@@H]1OC(C)=O.CCP(CC)CC.[Au+] [Aur, [1-(thio-κS)-β-D-glucopyranose-2,3,4,6-tetraacetyl] (triethylphosphine)-gold] | – | unstable | 600 ± 100 nM | 70 | 130 | did not bring about increments | did not bring about increments | 49–310 ng/mL and 0.1–0.6 μM | 40% | around 25% | significant enhancement | 75% | 45–80%
